The values that follow come from US20250059171A1 (Hoffmann-La Roche Inc., priority 2021, published 2025).

One may read the IC50 as the point on the concentration scale where inhibition reaches its midpoint.

The structures appear in SMILES notation.

Experiment [1] addresses SARS-CoV 3CLpro (Severe acute respiratory syndrome coronavirus, UniProt P0C6X7). Put plainly: biochemical.
The target in experiment [2] is SARS-CoV-2 3CLpro (Severe acute respiratory syndrome coronavirus 2, UniProt P0DTD1). Put plainly: biochemical.
For experiment [3], the target named is MERS-CoV 3CLpro (Middle East respiratory syndrome-related coronavirus, UniProt K9N7C7). In words: biochemical.
The target of experiment [4] is HCoV-229E 3CLpro (Human coronavirus 229E, UniProt P0C6X1). In words: HCoV-229E 3CLpro inhibition assay (FRET). It counts as biochemical.
Chain of HCoV-229E 3CLpro (P0C6X1 2966-3267): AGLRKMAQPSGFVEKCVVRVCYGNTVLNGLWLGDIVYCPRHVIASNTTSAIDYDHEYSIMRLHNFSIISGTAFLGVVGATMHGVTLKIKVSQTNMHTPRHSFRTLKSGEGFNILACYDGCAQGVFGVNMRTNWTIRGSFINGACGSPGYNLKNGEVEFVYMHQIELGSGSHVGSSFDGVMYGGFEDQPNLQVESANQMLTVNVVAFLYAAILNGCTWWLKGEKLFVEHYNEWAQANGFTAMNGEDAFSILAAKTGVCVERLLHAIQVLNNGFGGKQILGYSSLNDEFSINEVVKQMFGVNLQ

Chain of MERS-CoV 3CLpro (K9N7C7 3248-3553): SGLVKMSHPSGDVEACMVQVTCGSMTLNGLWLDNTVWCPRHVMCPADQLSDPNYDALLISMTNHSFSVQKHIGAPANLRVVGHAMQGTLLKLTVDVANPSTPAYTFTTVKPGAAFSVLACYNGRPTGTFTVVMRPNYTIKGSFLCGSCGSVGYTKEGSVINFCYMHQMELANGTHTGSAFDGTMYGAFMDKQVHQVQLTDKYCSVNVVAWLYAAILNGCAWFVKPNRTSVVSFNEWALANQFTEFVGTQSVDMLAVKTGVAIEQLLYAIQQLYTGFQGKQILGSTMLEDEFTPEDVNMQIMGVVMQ

In the case of `CC[C@H](C)[C@H](NC(=O)c1ccccc1)C(=O)N1C[C@@H]2CCC[C@@H]2[C@H]1C(=O)NN(C[C@@H]1CCNC1=O)C(=O)[C@H](F)Cl` [Example 80, N-[(1S,2S)-1-[(3S,3aS,6aR)-3-[[[(2R)-2-chloro-2-fluoro-acetyl]-[[(3S)-2-oxopyrrolidin-3-yl]methyl]amino]carbamoyl]-3,3a,4,5,6,6a-hexahydro-1H-cyclopenta[c]pyrrole-2-carbonyl]-2-methyl-butyl]benzamide], the IC50 in experiment [1] turned out to be 11 nM; in experiment [2], 10 nM; in experiment [3] it was 58 nM; in experiment [4], 20 nM.

Regarding `CC[C@H](C)[C@H](NC(C)=O)C(=O)N1C[C@@H]2CCC[C@@H]2[C@H]1C(=O)NN(C[C@@H]1CCNC1=O)C(=O)[C@H](F)Cl` [Example 81, N-[(1S,2S)-1-[(3S,3aS,6aR)-3-[[[(2R)-2-chloro-2-fluoro-acetyl]-[[(3S)-2-oxopyrrolidin-3-yl]methyl]amino]carbamoyl]-3,3a,4,5,6,6a-hexahydro-1H-cyclopenta[c]pyrrole-2-carbonyl]-2-methyl-butyl]acetamide], the IC50 turned out to be 15 nM in experiment [1], 9 nM in experiment [2], 93 nM in experiment [3] and 45 nM in experiment [4].

Take `CC(C)(C)[C@H](NC(=O)C1(F)CC1)C(=O)N1C[C@@H]2CCC[C@@H]2[C@H]1C(=O)NN(C[C@@H]1CCNC1=O)C(=O)[C@H](F)Cl` [Example 82, N-[(1S)-1-[(3S,3aS,6aR)-3-[[[(2R)-2-chloro-2-fluoro-acetyl]-[[(3S)-2-oxopyrrolidin-3-yl]methyl]amino]carbamoyl]-3,3a,4,5,6,6a-hexahydro-1H-cyclopenta[c]pyrrole-2-carbonyl]-2,2-dimethyl-propyl]-1-fluoro-cyclopropanecarboxamide]: the 50% inhibitory concentration (IC50) in experiment [1] was 12 nM; in experiment [2], 8 nM; in experiment [3] it was 84 nM; in experiment [4], 33 nM.

Turning to `CC(C)(C)[C@H](NC(=O)C1(F)CC1)C(=O)N1C[C@H]2[C@@H]([C@H]1C(=O)NN(C[C@@H]1CCNC1=O)C(=O)[C@H](F)Cl)C2(C)C` [Example 83, N-[(1S)-1-[(1R,2S,5S)-2-[[[(2R)-2-chloro-2-fluoro-acetyl]-[[(3S)-2-oxopyrrolidin-3-yl]methyl]amino]carbamoyl]-6,6-dimethyl-3-azabicyclo[3.1.0]hexane-3-carbonyl]-2,2-dimethyl-propyl]-1-fluoro-cyclopropanecarboxamide], the IC50 in experiment [1] was determined as 10 nM; in experiment [2], 9 nM; in experiment [3] it was 97 nM; in experiment [4], 31 nM.

For `CC(F)(F)C(=O)N[C@H](C(=O)N1C[C@H]2[C@@H]([C@H]1C(=O)NN(C[C@@H]1CCNC1=O)C(=O)[C@@H](F)Cl)C2(C)C)C(C)(C)C` [Example 85, N-[(1S)-1-[(1R,2S,5S)-2-[[[(2S)-2-chloro-2-fluoro-acetyl]-[[(3S)-2-oxopyrrolidin-3-yl]methyl]amino]carbamoyl]-6,6-dimethyl-3-azabicyclo[3.1.0]hexane-3-carbonyl]-2,2-dimethyl-propyl]-2,2-difluoro-propanamide], the IC50 in experiment [1] amounted to 12 nM; in experiment [2], 12 nM; in experiment [3], 69 nM; in experiment [4], 21 nM.

As for `CCC(C)(C)[C@H](NC(=O)C(F)(F)F)C(=O)N1C[C@H]2[C@@H]([C@H]1C(=O)NN(C[C@@H]1CCNC1=O)C(=O)[C@H](F)Cl)C2(C)C` [Example 86, N-[(1S)-1-[(1R,2S,5S)-2-[[[(2R)-2-chloro-2-fluoro-acetyl]-[[(3S)-2-oxopyrrolidin-3-yl]methyl]amino]carbamoyl]-6,6-dimethyl-3-azabicyclo[3.1.0]hexane-3-carbonyl]-2,2-dimethyl-butyl]-2,2,2-trifluoro-acetamide], the concentration for half-maximal inhibition (IC50) in experiment [1] stood at 19 nM; in experiment [2], 7 nM; in experiment [3], 86 nM; in experiment [4] it was 35 nM.

Consider `CC(C)(C)[C@H](NC(=O)C(F)(F)F)C(=O)N1C[C@H]2[C@@H]([C@H]1C(=O)NN(CCC(N)=O)C(=O)[C@H](F)Cl)C2(C)C` [Example 87, 3-[[(2R)-2-chloro-2-fluoro-acetyl]-[[(1R,2S,5S)-3-[(2S)-3,3-dimethyl-2-[(2,2,2-trifluoroacetyl)amino]butanoyl]-6,6-dimethyl-3-azabicyclo[3.1.0]hexane-2-carbonyl]amino]amino]propanamide], for which the IC50 in experiment [1] stood at 9.3 nM; in experiment [2] it was 14 nM; in experiment [3], 73 nM; in experiment [4] it was 19 nM.

`CC(C)(C)[C@H](NC(=O)C1CC(F)(F)C1)C(=O)N1C[C@H]2[C@@H]([C@H]1C(=O)NN(C[C@@H]1CCNC1=O)C(=O)[C@H](F)Cl)C2(C)C` [Example 90, N-[(1S)-1-[(1R,2S,5S)-2-[[[(2R)-2-chloro-2-fluoro-acetyl]-[[(3S)-2-oxopyrrolidin-3-yl]methyl]amino]carbamoyl]-6,6-dimethyl-3-azabicyclo[3.1.0]hexane-3-carbonyl]-2,2-dimethyl-propyl]-3,3-difluoro-cyclobutanecarboxamide]: the IC50 came out at 12 nM in experiment [1], 10 nM in experiment [2], 55 nM in experiment [3] and 22 nM in experiment [4].

Regarding `CC(C)(C)[C@H](NC(=O)C1(F)CCC1)C(=O)N1C[C@H]2[C@@H]([C@H]1C(=O)NN(C[C@@H]1CCNC1=O)C(=O)[C@H](F)Cl)C2(C)C` [Example 91, N-[(1S)-1-[(1R,2S,5S)-2-[[[(2R)-2-chloro-2-fluoro-acetyl]-[[(3S)-2-oxopyrrolidin-3-yl]methyl]amino]carbamoyl]-6,6-dimethyl-3-azabicyclo[3.1.0]hexane-3-carbonyl]-2,2-dimethyl-propyl]-1-fluoro-cyclobutanecarboxamide], the IC50 in experiment [1] came to 15 nM; in experiment [2], 12 nM; in experiment [3], 115 nM; in experiment [4], 39 nM.

On to `CC(C)(C)[C@H](NC(=O)[C@@H]1CC1(F)F)C(=O)N1C[C@H]2[C@@H]([C@H]1C(=O)NN(C[C@@H]1CCNC1=O)C(=O)[C@H](F)Cl)C2(C)C` [Example 92, (1S)—N-[(1S)-1-[(1R,2S,5S)-2-[[[(2R)-2-chloro-2-fluoro-acetyl]-[[(3S)-2-oxopyrrolidin-3-yl]methyl]amino]carbamoyl]-6,6-dimethyl-3-azabicyclo[3.1.0]hexane-3-carbonyl]-2,2-dimethyl-propyl]-2,2-difluoro-cyclopropanecarboxamide], for which the IC50 in experiment [1] turned out to be 18 nM; in experiment [2] it was 8 nM; in experiment [3] it was 57 nM; in experiment [4], 23 nM.

With `CC(C)(C)[C@H](NC(=O)C1CC(F)(F)C1)C(=O)N1C[C@H]2[C@@H]([C@H]1C(=O)NN(C[C@@H]1CCNC1=O)C(=O)[C@@H](F)Cl)C2(C)C` [Example 93, N-[(1S)-1-[(1R,2S,5S)-2-[[[(2S)-2-chloro-2-fluoro-acetyl]-[[(3S)-2-oxopyrrolidin-3-yl]methyl]amino]carbamoyl]-6,6-dimethyl-3-azabicyclo[3.1.0]hexane-3-carbonyl]-2,2-dimethyl-propyl]-3,3-difluoro-cyclobutanecarboxamide], the IC50 in experiment [1] was determined as 54 nM; in experiment [2], 31 nM; in experiment [3], 94 nM; in experiment [4], 42 nM.

As for `CC(C)(C)[C@H](NC(=O)C1(F)CC1)C(=O)N1C[C@H]2[C@@H]([C@H]1C(=O)NN(C[C@@H]1CCNC1=O)C(=O)[C@@H](F)Cl)C2(C)C` [Example 94, N-[(1S)-1-[(1R,2S,5S)-2-[[[(2S)-2-chloro-2-fluoro-acetyl]-[[(3S)-2-oxopyrrolidin-3-yl]methyl]amino]carbamoyl]-6,6-dimethyl-3-azabicyclo[3.1.0]hexane-3-carbonyl]-2,2-dimethyl-propyl]-1-fluoro-cyclopropanecarboxamide], the IC50 was 29 nM in experiment [1], 21 nM in experiment [2], 136 nM in experiment [3] and 59 nM in experiment [4].

Consider `CC(C)(C)[C@H](NC(=O)[C@@H]1CC1(F)F)C(=O)N1C[C@H]2[C@@H]([C@H]1C(=O)NN(C[C@@H]1CCNC1=O)C(=O)[C@@H](F)Cl)C2(C)C` [Example 95, (1S)—N-[(1S)-1-[(1R,2S,5S)-2-[[[(2S)-2-chloro-2-fluoro-acetyl]-[[(3S)-2-oxopyrrolidin-3-yl]methyl]amino]carbamoyl]-6,6-dimethyl-3-azabicyclo[3.1.0]hexane-3-carbonyl]-2,2-dimethyl-propyl]-2,2-difluoro-cyclopropanecarboxamide], for which the IC50 stood at 14 nM in experiment [1], 10 nM in experiment [2], 71 nM in experiment [3] and 28 nM in experiment [4].

On to `CC(C)(C)[C@H](NC(=O)[C@H]1CC1(F)F)C(=O)N1C[C@H]2[C@@H]([C@H]1C(=O)NN(C[C@@H]1CCNC1=O)C(=O)[C@@H](F)Cl)C2(C)C` [Example 96, (1R)—N-[(1S)-1-[(1R,2S,5S)-2-[[[(2S)-2-chloro-2-fluoro-acetyl]-[[(3S)-2-oxopyrrolidin-3-yl]methyl]amino]carbamoyl]-6,6-dimethyl-3-azabicyclo[3.1.0]hexane-3-carbonyl]-2,2-dimethyl-propyl]-2,2-difluoro-cyclopropanecarboxamide], for which the IC50 in experiment [1] was 14 nM; in experiment [2], 11 nM; in experiment [3], 63 nM; in experiment [4], 25 nM.

In the case of `CC(C)(C)[C@H](NC(=O)C1(F)CCC1)C(=O)N1C[C@@H]2CCC[C@@H]2[C@H]1C(=O)NN(C[C@@H]1CCNC1=O)C(=O)[C@H](F)Cl` [Example 97, N-[(1S)-1-[(3S,3aS,6aR)-3-[[[(2R)-2-chloro-2-fluoro-acetyl]-[[(3S)-2-oxopyrrolidin-3-yl]methyl]amino]carbamoyl]-3,3a,4,5,6,6a-hexahydro-1H-cyclopenta[c]pyrrole-2-carbonyl]-2,2-dimethyl-propyl]-1-fluoro-cyclobutanecarboxamide], the half-inhibitory concentration (IC50) in experiment [1] was 13 nM; in experiment [2], 11 nM; in experiment [3] it was 208 nM; in experiment [4] it was 74 nM.
